Laboratory results published in US6479435B1, “Diaryl ethers and processes for their preparation and herbicidal and desiccant compositions containing them” (ISK Americas Incorporated, priority 1997, dated 2002).

Experiments:
Type in all cases: in vivo
[1] = system: upland rice (Oryza sp., var.Tebonnet, RICE); experiment: Pre-emerge greenhouse test, crop damage rating; conditions: 14 days after application, rating scale 0-100
In short: (§1)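 Seeds sown in sandy loam mix one day before track-sprayer application of compounds in acetone at 125–1000 g ai/ha (187 l/ha), then surface-watered to incorporate and bottom-watered. Visual rating 14 days after application on a 0–100 scale (0 = no damage, 100 = all plants dead).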

[2] = system: field corn (Zea mays L., var. Dekalb 535, CORN); experiment: Pre-emerge greenhouse test, crop damage rating; conditions: 14 days after application, rating scale 0-100
In short: as §1

[3] = system: ivyleaf morningglory (Ipomoea hederacea, IPOHE); experiment: Pre-emerge greenhouse herbicide test, phytotoxicity rating; conditions: 14 days after application, rating scale 0-100
In short: as §1

[4] = system: common ragweed (Ambrosia artemisiifolia L., AMBEL); experiment: as above; conditions: 14 days after application, rating scale 0-100
In short: as §1

[5] = system: velvetleaf (Abutilon theophrasti, ABUTH); experiment: as above; conditions: 14 days after application, rating scale 0-100
In short: as §1

[6] = system: lambsquarters (Chenopodium album, CHEAL); experiment: as above; conditions: 14 days after application, rating scale 0-100
In short: as §1

[7] = system: sicklepod (Cassia obtusifolia, CASOB); experiment: as above; conditions: 14 days after application, rating scale 0-100
In short: as §1

[8] = system: green foxtail (Setaria viridis, SETVI); experiment: as above; conditions: 14 days after application, rating scale 0-100
In short: as §1

[9] = system: Johnsongrass (Sorghum halepense, SORHA); experiment: as above; conditions: 14 days after application, rating scale 0-100
In short: as §1

[10] = system: large crabgrass (Digitaria sanguinalis, DIGSA); experiment: as above; conditions: 14 days after application, rating scale 0-100
In short: as §1

[11] = system: barnyardgrass (Echinochloa crusgalli, ECHCG); experiment: as above; conditions: 14 days after application, rating scale 0-100
In short: as §1

[12] = system: redroot pigweed (Amaranthus retroflexus, AMARE); experiment: as above; conditions: 14 days after application, rating scale 0-100
In short: as §1

[13] = system: ivyleaf morningglory (Ipomoea hederacea, IPOHE); experiment: Post-emerge greenhouse herbicide test, phytotoxicity rating; conditions: 14 days after application
In short: (§2)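 Compounds in acetone with 0.25% v/v non-ionic surfactant were track-sprayed at 187 l/ha over plants at the 2-3 leaf stage, at 63 to 1000 g ai/ha. Pots were bottom-watered. Injury was scored visually 14 days later on a 0-100 scale, where 0 is no damage and 100 is complete plant death.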

[14] = system: velvetleaf (Abutilon theophrasti, ABUTH); experiment: as above; conditions: 14 days after application
In short: as §2

[15] = system: lambsquarters (Chenopodium album, CHEAL); experiment: as above; conditions: 14 days after application
In short: as §2

[16] = system: sicklepod (Cassia obtusifolia, CASOB); experiment: as above; conditions: 14 days after application
In short: as §2

[17] = system: green foxtail (Setaria viridis, SETVI); experiment: as above; conditions: 14 days after application
In short: as §2

[18] = system: Johnsongrass (Sorghum halepense, SORHA); experiment: as above; conditions: 14 days after application
In short: as §2

[19] = system: large crabgrass (Digitaria sanguinalis, DIGSA); experiment: as above; conditions: 14 days after application
In short: as §2

[20] = system: barnyardgrass (Echinochloa crusgalli, ECHCG); experiment: as above; conditions: 14 days after application
In short: as §2

[21] = system: redroot pigweed (Amaranthus retroflexus, AMARE); experiment: as above; conditions: 14 days after application
In short: as §2

[22] = system: soybean (Glycine max L., var. Pella 86, SOY); experiment: Post-emerge greenhouse test, crop damage rating; conditions: 14 days after application
In short: as §2

[23] = system: upland rice (Oryza sp., var.Tebonnet, RICE); experiment: Post-emerge greenhouse test, crop damage rating; conditions: 14 days after application
In short: as §2

[24] = system: field corn (Zea mays L., var. Dekalb 535, CORN); experiment: Post-emerge greenhouse test, crop damage rating; conditions: 14 days after application
In short: as §2

[25] = system: soybean (Glycine max L., var. Pella 86, SOY); experiment: Pre-emerge greenhouse test, crop damage rating; conditions: 14 days after application, rating scale 0-100
In short: as §1

[26] = system: common ragweed (Ambrosia artemisiifolia L., AMBEL); experiment: Post-emerge greenhouse herbicide test, phytotoxicity rating; conditions: 14 days after application
In short: as §2

Compound: O=c1sc(=Nc2cc(Oc3ncccn3)c(Cl)cc2F)n2n1CCCC2 [Compound 7-2]
- crop damage rating RICE ([1]; 125 g ai/ha): 90
- crop damage rating RICE ([1]; 500 g ai/ha): 100
- crop damage rating CORN ([2]; 125 g ai/ha): 45
- crop damage rating CORN ([2]; 500 g ai/ha): 70
- phytotoxicity rating IPOHE ([3]; 125 g ai/ha): 100
- phytotoxicity rating IPOHE ([3]; 500 g ai/ha): 100
- phytotoxicity rating AMBEL ([4]; 125 g ai/ha): 100
- phytotoxicity rating AMBEL ([4]; 500 g ai/ha): 100
- phytotoxicity rating ABUTH ([5]; 125 g ai/ha): 100
- phytotoxicity rating ABUTH ([5]; 500 g ai/ha): 100
- phytotoxicity rating CHEAL ([6]; 125 g ai/ha): 100
- phytotoxicity rating CHEAL ([6]; 500 g ai/ha): 100
- phytotoxicity rating CASOB ([7]; 125 g ai/ha): 60
- phytotoxicity rating CASOB ([7]; 500 g ai/ha): 100
- phytotoxicity rating SETVI ([8]; 125 g ai/ha): 100
- phytotoxicity rating SETVI ([8]; 500 g ai/ha): 100
- phytotoxicity rating SORHA ([9]; 125 g ai/ha): 95
- phytotoxicity rating SORHA ([9]; 500 g ai/ha): 100
- phytotoxicity rating DIGSA ([10]; 125 g ai/ha): 100
- phytotoxicity rating DIGSA ([10]; 500 g ai/ha): 100
- phytotoxicity rating ECHCG ([11]; 125 g ai/ha): 99
- phytotoxicity rating ECHCG ([11]; 500 g ai/ha): 100
- phytotoxicity rating AMARE ([12]; 125 g ai/ha): 100
- phytotoxicity rating AMARE ([12]; 500 g ai/ha): 100
- IPOHE phytotoxicity rating (0-100) ([13]; 63 g al/ha): 100
- IPOHE phytotoxicity rating (0-100) ([13]; 500 g al/ha): 100
- ABUTH phytotoxicity rating (0-100) ([14]; 63 g al/ha): 100
- ABUTH phytotoxicity rating (0-100) ([14]; 500 g al/ha): 100
- CHEAL phytotoxicity rating (0-100) ([15]; 63 g al/ha): 100
- CHEAL phytotoxicity rating (0-100) ([15]; 500 g al/ha): 100
- CASOB phytotoxicity rating (0-100) ([16]; 63 g al/ha): 100
- CASOB phytotoxicity rating (0-100) ([16]; 500 g al/ha): 100
- SETVI phytotoxicity rating (0-100) ([17]; 63 g al/ha): 90
- SETVI phytotoxicity rating (0-100) ([17]; 500 g al/ha): 100
- SORHA phytotoxicity rating (0-100) ([18]; 63 g al/ha): 60
- SORHA phytotoxicity rating (0-100) ([18]; 500 g al/ha): 100
- DIGSA phytotoxicity rating (0-100) ([19]; 63 g al/ha): 30
- DIGSA phytotoxicity rating (0-100) ([19]; 500 g al/ha): 85
- ECHCG phytotoxicity rating (0-100) ([20]; 63 g al/ha): 40
- ECHCG phytotoxicity rating (0-100) ([20]; 500 g al/ha): 95
- AMARE phytotoxicity rating (0-100) ([21]; 63 g al/ha): 100
- AMARE phytotoxicity rating (0-100) ([21]; 500 g al/ha): 100
- SOY crop damage rating (0-100) ([22]; 63 g al/ha): 95
- SOY crop damage rating (0-100) ([22]; 500 g al/ha): 100
- RICE crop damage rating (0-100) ([23]; 63 g al/ha): 80
- RICE crop damage rating (0-100) ([23]; 500 g al/ha): 95
- CORN crop damage rating (0-100) ([24]; 63 g al/ha): 35
- CORN crop damage rating (0-100) ([24]; 500 g al/ha): 90
- crop damage rating SOY ([25]; 125 g ai/ha): 0
- crop damage rating SOY ([25]; 500 g ai/ha): 80
- AMBEL phytotoxicity rating (0-100) ([26]; 63 g al/ha): 100
- AMBEL phytotoxicity rating (0-100) ([26]; 500 g al/ha): 100
